Measured values: patent US8952163B2, “Substituted hydroxamic acids and uses thereof” (Millennium Pharmaceuticals, Inc., priority 2010, dated 2015)

target: T1, purified human HDAC6 (Homo sapiens, UniProt Q9UBN7); experiment: HDAC6 Enzyme Assay; assay type: biochemical; conditions: test compound at 1.235 μM; substrate Ac-Arg-Gly-Lys(Ac)-AMC, 1 hour at 30° C.; read-out: Percent Inhibition at 1.235 μM
T1 construct: purchased BPS Bioscience 5006
T1 sequence (Q9UBN7 1-1215): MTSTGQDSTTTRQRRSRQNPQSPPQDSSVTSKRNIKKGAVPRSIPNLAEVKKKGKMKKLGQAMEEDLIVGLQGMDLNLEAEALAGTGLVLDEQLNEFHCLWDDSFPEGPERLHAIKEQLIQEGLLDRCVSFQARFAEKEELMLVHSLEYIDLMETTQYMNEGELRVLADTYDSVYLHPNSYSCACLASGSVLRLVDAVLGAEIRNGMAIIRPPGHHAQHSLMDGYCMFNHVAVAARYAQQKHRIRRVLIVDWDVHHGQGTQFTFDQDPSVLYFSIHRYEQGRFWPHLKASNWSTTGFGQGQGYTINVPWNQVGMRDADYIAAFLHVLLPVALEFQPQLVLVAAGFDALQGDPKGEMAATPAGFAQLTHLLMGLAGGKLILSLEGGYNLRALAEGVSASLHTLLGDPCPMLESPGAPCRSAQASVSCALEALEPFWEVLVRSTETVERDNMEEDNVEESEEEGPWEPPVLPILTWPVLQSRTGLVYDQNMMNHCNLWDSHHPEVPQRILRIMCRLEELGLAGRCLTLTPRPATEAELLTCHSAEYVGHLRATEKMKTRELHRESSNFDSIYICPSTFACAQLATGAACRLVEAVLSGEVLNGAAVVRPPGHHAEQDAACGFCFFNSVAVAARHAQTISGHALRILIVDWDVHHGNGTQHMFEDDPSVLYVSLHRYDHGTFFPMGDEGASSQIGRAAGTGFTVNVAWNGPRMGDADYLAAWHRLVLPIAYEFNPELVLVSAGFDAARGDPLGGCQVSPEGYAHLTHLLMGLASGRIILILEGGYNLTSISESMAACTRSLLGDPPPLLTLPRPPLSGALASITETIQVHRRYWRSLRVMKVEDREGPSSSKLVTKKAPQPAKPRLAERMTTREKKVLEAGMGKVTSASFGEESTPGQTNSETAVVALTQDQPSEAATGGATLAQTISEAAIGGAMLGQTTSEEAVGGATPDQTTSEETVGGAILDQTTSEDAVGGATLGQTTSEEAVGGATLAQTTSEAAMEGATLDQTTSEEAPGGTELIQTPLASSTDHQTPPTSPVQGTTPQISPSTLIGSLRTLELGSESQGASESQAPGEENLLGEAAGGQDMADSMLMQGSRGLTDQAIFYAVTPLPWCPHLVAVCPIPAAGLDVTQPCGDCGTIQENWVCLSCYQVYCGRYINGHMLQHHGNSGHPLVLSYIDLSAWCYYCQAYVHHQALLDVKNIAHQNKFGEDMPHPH
Method: To measure the inhibition of HDAC6 activity, purified human HDAC6 (BPS Bioscience; Cat. No. 5006) is incubated with substrate Ac-Arg-Gly-Lys(Ac)-AMC peptide (Bachem Biosciences; Cat. No. I-1925) for 1 hour at 30° C. in the presence of test compounds or vehicle DMSO control. The reaction is stopped with the HDAC inhibitor trichostatin A (Sigma; Cat. No. T8552) and the amount of Arg-Gly-Lys-AMC generated is quantitated by digestion with trypsin (Sigma; Cat. No. T1426) and subsequent measurement of the amount of AMC released using a fluorescent plate reader (Pherastar, BMG Technologies) set at Ex 340 nm and Em 460 nm. Concentration response curves are generated by calculating the fluorescence increase in test compound-treated samples relative to DMSO-treated controls, and percentage inhibition values at a single concentration or enzyme inhibition (IC50) values are determined from those curves. One skilled in the art will appreciate that the values generated either as percentage inhibition at a single concentration or IC50 values are subject to experimental variation.

Compound	inhibition at 1.235 µM [%]
CC(=O)N1CCc2nc(C(=O)NO)ccc2C1 [Compound I-2, 6-acetyl-N-hydroxy-5,6,7,8-tetrahydro-1,6-naphthyridine-2-carboxamide]	34.1
O=C(NO)c1ccc2c(n1)CCN(C(=O)c1cc3ccccc3o1)C2 [Compound I-14, 6-(1-benzofuran-2-ylcarbonyl)-N-hydroxy-5,6,7,8-tetrahydro-1,6-naphthyridine-2-carboxamide]	89.9
CC(=O)N1CCc2cc(C(=O)NO)cnc2C1 [Compound I-21, 7-acetyl-N-hydroxy-5,6,7,8-tetrahydro-1,7-naphthyridine-3-carboxamide]	73.9
CC1(C(=O)N2CCc3cc(C(=O)NO)cnc3C2)CCCCC1 [Compound I-9, N-hydroxy-7-[(1-methylcyclohexyl)carbonyl]-5,6,7,8-tetrahydro-1,7-naphthyridine-3-carboxamide]	95.2
CC(C)(C)C(=O)N1CCc2ncc(C(=O)NO)cc2C1 [Compound I-30, 6-(2,2-dimethylpropanoyl)-N-hydroxy-5,6,7,8-tetrahydro-1,6-naphthyridine-3-carboxamide]	85
Cn1cccc1C(=O)N1CCc2cc(C(=O)NO)cnc2C1 [Compound I-24, N-hydroxy-7-[(1-methyl-1H-pyrrol-2-yl)carbonyl]-5,6,7,8-tetrahydro-1,7-naphthyridine-3-carboxamide]	92.3
Cc1nc(C(=O)N2CCc3nc(C(=O)NO)ccc3C2)cs1 [Compound I-27, N-hydroxy-6-[(2-methyl-1,3-thiazol-4-yl)carbonyl]-5,6,7,8-tetrahydro-1,6-naphthyridine-2-carboxamide]	51.2
O=C(NO)c1ccc2c(n1)CCN(C(=O)C13CC4CC(CC(C4)C1)C3)C2 [Compound I-22, 6-[1-adamantylcarbonyl]-N-hydroxy-5,6,7,8-tetrahydro-1,6-naphthyridine-2-carboxamide]	90.2
Cc1nc(C(=O)N2CCc3cc(C(=O)NO)cnc3C2)cs1 [Compound I-10, N-hydroxy-7-[(2-methyl-1,3-thiazol-4-yl)carbonyl]-5,6,7,8-tetrahydro-1,7-naphthyridine-3-carboxamide]	84.6
O=C(NO)c1cnc2c(c1)CCN(C(=O)c1ccc(Cl)cc1)C2 [Compound I-28, 7-(4-chlorobenzoyl)-N-hydroxy-5,6,7,8-tetrahydro-1,7-naphthyridine-3-carboxamide]	91.9
O=C(NO)c1ccc2c(n1)CCN(Cc1ccccc1)C2 [Compound I-38, 6-benzyl-N-hydroxy-5,6,7,8-tetrahydro-1,6-naphthyridine-2-carboxamide]	60.2
CCCCOc1ccc(S(=O)(=O)N2CCc3ncc(C(=O)NO)cc3C2)cc1 [Compound I-57, 6-[(4-butoxyphenyl)sulfonyl]-N-hydroxy-5,6,7,8-tetrahydro-1,6-naphthyridine-3-carboxamide]	94.1
O=C(NO)c1cnc2c(c1)CN(Cc1ccccc1)CC2 [Compound I-20, 6-benzyl-N-hydroxy-5,6,7,8-tetrahydro-1,6-naphthyridine-3-carboxamide]	58.6
Cc1ccccc1NC(=O)N1CCc2nc(C(=O)NO)ccc2C1 [Compound I-8, N^2-hydroxy-N^6-(2-methylphenyl)-7,8-dihydro-1,6-naphthyridine-2,6(5H)-dicarboxamide]	40.4
O=C(NO)c1ccc2c(n1)CCN(C(=O)c1[nH]c3ccccc3c1-c1ccccc1)C2 [Compound I-7, N-hydroxy-6-[(3-phenyl-1H-indol-2-yl)carbonyl]-5,6,7,8-tetrahydro-1,6-naphthyridine-2-carboxamide]	79
CC1(C(=O)N2CCc3nc(C(=O)NO)ccc3C2)CCCCC1 [Compound I-19, N-hydroxy-6-[(1-methylcyclohexyl)carbonyl]-5,6,7,8-tetrahydro-1,6-naphthyridine-2-carboxamide]	79.5

Other lines, results leading:

inhibition at 1.235 µM [%]	Compound
92.5	Cn1cccc1C(=O)N1CCc2ncc(C(=O)NO)cc2C1 [Compound I-39, N-hydroxy-6-[(1-methyl-1H-pyrrol-2-yl)carbonyl]-5,6,7,8-tetrahydro-1,6-naphthyridine-3-carboxamide]
91.1	COc1ccc(C(=O)N2CCc3cc(C(=O)NO)cnc3C2)cc1 [Compound I-48, N-hydroxy-7-(4-methoxybenzoyl)-5,6,7,8-tetrahydro-1,7-naphthyridine-3-carboxamide]
94.7	O=C(NO)c1cnc2c(c1)CN(S(=O)(=O)c1ccc(C(F)(F)F)cc1)CC2 [Compound I-62, N-hydroxy-6-{[4-(trifluoromethyl)phenyl]sulfonyl}-5,6,7,8-tetrahydro-1,6-naphthyridine-3-carboxamide]
58.3	O=C(NO)c1ccc2c(n1)CCN(C(=O)NCCc1ccccc1)C2 [Compound I-55, N^2-hydroxy-N^6-(2-phenylethyl)-7,8-dihydro-1,6-naphthyridine-2,6(5H)-dicarboxamide]
93	COc1ccc(C(=O)N2CCc3ncc(C(=O)NO)cc3C2)cc1 [Compound I-32, N-hydroxy-6-(4-methoxybenzoyl)-5,6,7,8-tetrahydro-1,6-naphthyridine-3-carboxamide]
93	CC1(C(=O)N2CCc3ncc(C(=O)NO)cc3C2)CCCCC1 [Compound I-56, N-hydroxy-6-[(1-methylcyclohexyl)carbonyl]-5,6,7,8-tetrahydro-1,6-naphthyridine-3-carboxamide]
39	CC(C)(C)NC(=O)N1CCc2nc(C(=O)NO)ccc2C1 [Compound I-45, N^6-(tert-butyl)-N^2-hydroxy-7,8-dihydro-1,6-naphthyridine-2,6(5H)-dicarboxamide]
95.1	CC(C)(C)c1ccc(C(=O)N2CCc3ncc(C(=O)NO)cc3C2)cc1 [Compound I-50, 6-(4-tert-butylbenzoyl)-N-hydroxy-5,6,7,8-tetrahydro-1,6-naphthyridine-3-carboxamide]
94.1	O=C(NO)c1ccc2c(n1)CCN(C(=O)c1cc3ccccc3s1)C2 [Compound I-49, 6-(1-benzothien-2-ylcarbonyl)-N-hydroxy-5,6,7,8-tetrahydro-1,6-naphthyridine-2-carboxamide]
34.3	CCc1cccc(CC)c1NC(=O)N1CCc2nc(C(=O)NO)ccc2C1 [Compound I-47, N^6-(2,6-diethylphenyl)-N^2-hydroxy-7,8-dihydro-1,6-naphthyridine-2,6(5H)-dicarboxamide]
59	CC(C)(C)C(=O)N1CCc2nc(C(=O)NO)ccc2C1 [Compound I-46, 6-(2,2-dimethylpropanoyl)-N-hydroxy-5,6,7,8-tetrahydro-1,6-naphthyridine-2-carboxamide]
48.2	O=C(NO)c1ccc2c(n1)CCN(C(=O)Nc1ccccc1-c1ccccc1)C2 [Compound I-34, N^6-biphenyl-2-yl-N^2-hydroxy-7,8-dihydro-1,6-naphthyridine-2,6(5H)-dicarboxamide]
26.5	CCCNC(=O)N1CCc2nc(C(=O)NO)ccc2C1 [Compound I-36, N^2-hydroxy-N^6-propyl-7,8-dihydro-1,6-naphthyridine-2,6(5H)-dicarboxamide]
67	COc1ccc(C(=O)N2CCc3nc(C(=O)NO)ccc3C2)cc1 [Compound I-35, N-hydroxy-6-(4-methoxybenzoyl)-5,6,7,8-tetrahydro-1,6-naphthyridine-2-carboxamide]
